Reference: patent US11001590B2, “Pyrazolopyrimidine derivatives” (BAYER ANIMAL HEALTH GMBH, priority 2016, dated 2021)

Tests used:
C. elegans Slo-1a = C. elegans Slo-1a (Caenorhabditis elegans, UniProt Q95V25); assay: In vitro assay 1: C. elegans Slo-1a, action at a recombinant C. elegans CHO cell line (membrane potential measurement); conditions: for pE50: CHO cells expressing C. elegans Slo-1a, voltage sensitive dye, FLIPR Tetra, negative decadic logarithm of EC50
Procedure: In Vitro Assay 1: C. Eleqans Slo-La—Action at a Recombinant C. elegans Cell Line
Cells were cultured at 37° C. and 5% CO2 in MEMalpha with Gutamax I (Invitrogen, Nr.: 32571), supplemented with 10% (v/v) heat inactivated fetal bovine serum (Invitrogen, Nr.: 10500), G418 (1 mg/ml, Invitrogen, Nr.: 10131). Cells were detached using Accutase (Sigma, Nr.: A6964).
Membrane Potential Measurements
Laboratory compound testing was performed on 384-well microtiter plates (MTPs, Greiner, Nr.: 781092). 8000 cells/well were plated onto 384-well MTPs and cultured for 20 to 24 hours at 37° C. and 5% CO2. After removal of the cell culture medium, the cells were washed once with tyrode (150 mM NaCl, 0.3 mM KCl, 2 mM CaCl2, 1 mM MgCl2, 0.8 mM NaH2PO4, 5 mM Glucose, 28 mM Hepes, pH 7.4) and then loaded with the voltage sensitive dye of the Membrane Potential Assay Kit diluted in tyrode for 1 h at room temperature.
After starting the measurement of fluorescence using a FLIPR Tetra (Molecular Devices, Exc. 510-545 nm, Emm. 565-625 nm), test compounds were added followed by the addition of KCl tyrode (final assay concentration: 70 mM KCl, 2 mM CaCl2, 1 mM MgCl2, 0.8 mM NaH2PO4, 5 mM Glucose, 28 mM Hepes, pH 7.4, including the voltage sensitive dye). The measurement was completed after 7 minutes.

[1] = log P by HPLC on reversed phase columns (Method L0; [a] acidic, [b] neutral range); conditions: for logP (Method L0) [a]: HPLC on reversed phase columns, Method L0, [a] acidic range; for log P: HPLC on reversed phase columns (Method L0)
Procedure: Calibration was done with straight-chain alkan-2-ones (with 3 to 16 carbon atoms) with known log P values (measurement of log P values using retention times with linear interpolation between successive alkanones). Lambda-max-values were determined using UV-spectra from 200 nm to 400 nm and the peak values of the chromatographic signals.

[2] = system: Dirofilaria immitis microfilariae; assay: In vitro assay 3: Dirofilaria immitis microfilariae (DIROIM L1), motility; conditions: 72 h, reduction of motility vs negative control, 72 h incubation
[3] = last column of Table 1, column head not shown

Chain of C. elegans Slo-1a (Q95V25 whole entry): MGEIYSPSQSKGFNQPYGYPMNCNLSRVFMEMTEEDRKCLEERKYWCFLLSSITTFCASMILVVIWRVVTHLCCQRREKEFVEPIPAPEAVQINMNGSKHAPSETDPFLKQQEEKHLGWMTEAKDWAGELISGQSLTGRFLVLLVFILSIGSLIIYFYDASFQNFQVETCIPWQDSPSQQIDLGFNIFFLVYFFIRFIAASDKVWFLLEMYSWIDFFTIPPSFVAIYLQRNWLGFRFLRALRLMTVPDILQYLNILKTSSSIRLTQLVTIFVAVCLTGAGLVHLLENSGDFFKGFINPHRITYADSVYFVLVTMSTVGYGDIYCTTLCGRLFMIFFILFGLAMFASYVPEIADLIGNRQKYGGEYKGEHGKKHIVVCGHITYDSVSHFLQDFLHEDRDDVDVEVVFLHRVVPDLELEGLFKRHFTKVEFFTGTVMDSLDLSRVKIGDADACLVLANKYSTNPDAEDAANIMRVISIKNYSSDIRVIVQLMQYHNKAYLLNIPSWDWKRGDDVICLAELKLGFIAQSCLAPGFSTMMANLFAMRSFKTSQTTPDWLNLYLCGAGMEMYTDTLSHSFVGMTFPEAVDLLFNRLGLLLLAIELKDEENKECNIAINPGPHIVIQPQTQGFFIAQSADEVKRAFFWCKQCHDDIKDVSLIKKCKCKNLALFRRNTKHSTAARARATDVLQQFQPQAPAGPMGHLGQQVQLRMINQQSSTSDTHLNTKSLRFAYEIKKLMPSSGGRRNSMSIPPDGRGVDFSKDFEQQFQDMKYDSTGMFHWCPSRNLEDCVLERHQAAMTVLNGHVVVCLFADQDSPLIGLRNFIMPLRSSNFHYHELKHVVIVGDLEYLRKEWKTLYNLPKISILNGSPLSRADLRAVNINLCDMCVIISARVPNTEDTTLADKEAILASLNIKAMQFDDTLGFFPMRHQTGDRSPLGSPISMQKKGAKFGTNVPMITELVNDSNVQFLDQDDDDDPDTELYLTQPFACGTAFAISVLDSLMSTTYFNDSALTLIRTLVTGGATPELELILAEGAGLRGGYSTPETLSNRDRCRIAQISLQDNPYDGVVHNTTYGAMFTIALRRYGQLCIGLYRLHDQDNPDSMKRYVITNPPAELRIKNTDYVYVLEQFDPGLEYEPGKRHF

| Compound | EC50 (C. elegans Slo-1a) [nM] | chromatographic logP [1] | EC50 [2] [µg/mL] | pE50 (C. elegans Slo-1a) | logP (Method L0) [a] [1] | log P [1] | log P [1, 3] |
| --- | --- | --- | --- | --- | --- | --- | --- |
| CCC(C)c1c(C(=O)N[C@H]2CCc3ccccc32)cnc2c(-c3c(F)cccc3Cl)c(C)nn12 (some centres unmarked) [Example 222] | 39.8 | 4.98 | < 0.1 |  |  |  |  |
| CC(=O)Nc1cc(-c2c(C)nn3c(C4CC4)c(C(=O)N[C@H]4CCOc5ccccc54)cnc23)ccn1 [Example 528] | 1260 | 1.69 | < 10 |  |  |  |  |
| Cc1nn2c(C3CC3)c(C(=O)N[C@H]3CCOc4ccccc43)cnc2c1-c1cccc(Cl)c1 [Example 455] | 6.31 | 4.13 | < 0.1 |  |  |  |  |
| Cc1nn2c(C(C)C)c(C(=O)N[C@H]3CCc4ccccc43)cnc2c1-c1cccc(Cl)n1 [Example 183] | 398 | 5.1 | < 10 |  |  |  |  |
| COCc1cccc(-c2c(C(F)(F)F)nn3c(C(C)C)c(C(=O)N[C@H]4CCc5ccccc54)cnc23)c1 [Example 144] | 158 | 4.87 | < 10 |  |  |  |  |
| COCCn1cc(-c2c(C)nn3c(C(C)C)c(C(=O)N[C@H]4CCc5ccccc54)cnc23)cn1 [Example 375] | 200 | 3.26 | < 10 |  |  |  |  |
| Cc1nn2c(C3CC3)c(C(=O)N[C@H]3CCOc4ccccc43)cnc2c1-c1cccc(OC(F)(F)F)c1 [Example 462] | 6.31 | 4.47 | < 0.1 |  |  |  |  |
| Cc1nn2c(C(C)C)c(C(=O)N[C@H]3CCOc4ccccc43)cnc2c1-c1ccc2c(c1)N(C)CC2 [Example 238] | 158 | 4.13 | < 10 |  |  |  |  |
| Cc1nn2c(C(C)C)c(C(=O)N[C@H]3CCc4ccccc43)cnc2c1-c1cccnc1 [Example 297] | 1260 | 2.19 | < 10 |  |  |  |  |
| Cc1nn2c(C(C)C)c(C(=O)N[C@H]3CCOc4ccccc43)cnc2c1-c1cnccc1Cl [Example 231] | 15.8 | 3.9 | < 1 |  |  |  |  |
| Cc1nn2c(C3CC3)c(C(=O)N[C@H]3CCOc4ccccc43)cnc2c1-c1ccnc(N2CCOCC2)c1F [Example 527] | 31.6 | 2.96 | < 10 |  |  |  |  |
| CC(C)c1c(C(=O)N[C@H]2CCc3ccccc32)cnc2c(-c3cc(Cl)cc(Cl)c3)c(S(C)(=O)=O)nn12 [Example 229] | 63.1 | 4.35 | < 1 |  |  |  |  |
| Cc1nn2c(C(C)C)c(C(=O)N[C@H]3CCc4ccccc43)cnc2c1-c1cccc(OCC2CC2)c1 [Example 319] | 25.1 | 5.28 | < 1 |  |  |  |  |
| Cc1nn2c(C3CC3)c(C(=O)N[C@H]3CCc4ccccc43)cnc2c1-c1cccc(OC(F)F)c1 [Example 417] | 7.94 | 4.01 | < 0.1 |  |  |  |  |
| COCc1ccc(-c2c(C)nn3c(C(C)C)c(C(=O)N[C@H]4CCc5ccccc54)cnc23)cc1 [Example 340] | 39.8 | 4.41 | < 1 |  |  |  |  |
| Cc1nn2c(C3CC3)c(C(=O)N[C@H]3CCc4ccccc43)cnc2c1-c1cc(Cl)cc(C(F)(F)F)c1 [Example 425] | 79.4 | 5.34 | < 10 |  |  |  |  |
| Cc1nn2c(C(C)C)c(C(=O)N[C@H]3CCOc4ccccc43)cnc2c1-c1ccc2c(c1)CC(=O)N2 [Example 252] | 1260 | 2.87 | < 10 |  |  |  |  |
| Cc1nn2c(C3CC3)c(C(=O)N[C@H]3CCc4ccccc43)cnc2c1-c1cccc(OC2CC2)c1 [Example 418] | 3.16 | 4.29 | < 0.1 |  |  |  |  |
| COCc1cccc(-c2c(C(F)F)nn3c(C(C)C)c(C(=O)N[C@H]4CCc5ccccc54)cnc23)c1 [Example 430] | 15.8 | 4.36 | < 1 |  |  |  |  |
| Cc1nn2c(C(C)C)c(C(=O)N[C@H]3CCCc4ccccc43)cnc2c1-c1cccc(C(F)F)c1 [Example 145] | 31.6 | 4.93 | < 10 |  |  |  |  |
| Cc1nn2c(C(C)C)c(C(=O)N[C@H]3CCOc4ccccc43)cnc2c1-c1ccccc1C#N [Example 264] | 25.1 | 3.68 | < 1 |  |  |  |  |
| CC(C)c1c(C(=O)N[C@H]2CCc3ccccc32)cnc2c(-c3ccccc3Cl)c(C(F)F)nn12 [Example 435] | 25.1 | 4.43 | < 0.1 |  |  |  |  |
| COc1cc(Cl)cc(-c2c(C)nn3c(C(C)C)c(C(=O)N[C@H]4CCCc5ccccc54)cnc23)c1 [Example 378] | 50.1 | 5.55 | < 1 |  |  |  |  |
| Cc1nn2c(N(C)C)c(C(=O)N[C@H]3CCOc4ccccc43)cnc2c1-c1cc(Cl)cc(Cl)c1 [Example 520] | 7.94 | 4.92 | < 0.1 |  |  |  |  |
| Cc1nn2c(C3CC3)c(C(=O)N[C@H]3CCOc4ccccc43)cnc2c1-c1cccc(F)c1 [Example 456] | 6.31 | 3.71 | < 0.1 |  |  |  |  |

| Compound | EC50 (C. elegans Slo-1a) [nM] | chromatographic logP [1] | EC50 [2] [µg/mL] | pE50 (C. elegans Slo-1a) | logP (Method L0) [a] [1] | log P [1] | log P [1, 3] |
| --- | --- | --- | --- | --- | --- | --- | --- |
| Cc1nn2c(C(C)C)c(C(=O)N[C@H]3CCOc4ccccc43)cnc2c1-c1ccc2cc[nH]c2c1 [Example 243] | 631 | 3.76 | < 10 |  |  |  |  |
| CC(C)c1c(C(=O)N[C@H]2CCc3ccccc32)cnc2c(-c3c(F)cccc3F)c(C(F)(F)F)nn12 [Example 135] | 126 | 4.81 | < 0.1 |  |  |  |  |
| CSc1nn2c(C(C)C)c(C(=O)N[C@H]3CCOc4ccccc43)cnc2c1-c1cc(Cl)cc(Cl)c1 [Example 202] | 25.1 | 6.35 | < 10 |  |  |  |  |
| CC(C)c1c(C(=O)N[C@H]2CCOc3ccccc32)cnc2c(-c3cccc(F)c3F)c(Cl)nn12 [Example 281, 2-Chloro-N—((S)-chroman-4-yl)-3-(2,3-difluorophenyl)-7-isopropylpyrazolo[1,5-a]pyrimidine-6-carboxamide] | 5.01 |  | < 0.1 |  |  |  |  |
| Cc1nn2c(C)c(C(=O)N[C@H]3CCc4ccccc43)cnc2c1-c1cc(Cl)cc(Cl)c1 [Example 60] | 7940 | 4.96 |  |  |  |  |  |
| Cc1nn2c(C(C)C)c(C(=O)N[C@H]3CCc4ccccc43)cnc2c1-c1ccc(C#N)c(C(F)(F)F)c1 [Example 293] | 316 | 4.97 |  |  |  |  |  |
| Cc1nn2c(C(C)C)c(C(=O)N[C@H]3CCOc4ccc(Cl)cc43)cnc2c1-c1ccccc1F [Example 93] |  |  |  | 7 | 4.67 |  |  |
| CC(C)c1c(C(=O)N[C@H]2CCc3ccccc32)cnc2c(-c3cc(Cl)cc(Cl)c3)c(C(F)(F)F)nn12 [Example 167] | 39.8 | 6.06 |  |  |  |  |  |
| Cc1ccc2c(c1)[C@@H](NC(=O)c1cnc3c(-c4cccc(C(F)(F)F)c4)c(C)nn3c1C(C)C)CCC2 [Example 5] |  |  |  | 7.2 | 5.99 |  |  |
| Cc1nn2c(C)c(C(=O)N[C@H]3CCCc4ccccc43)cnc2c1-c1cccc(Cl)c1 [Example 46] | 251 | 4.42 |  |  |  |  |  |
| Cc1nn2c(C(C)C)c(C(=O)N[C@H]3CCOc4ccccc43)cnc2c1-c1ccc(C(F)(F)F)c(F)c1 [Example 187] |  |  |  | 7.9 | 4.85 |  |  |
| Cc1ccc2c(c1)C(NC(=O)c1cnc3c(-c4c(F)cccc4Cl)c(C)nn3c1C(C)C)CCO2 (racemic) [Example 237] |  |  |  | 7.5 |  | 4.67 |  |
| Cc1nn2c(C)c(C(=O)N[C@H]3CCCc4ccccc43)cnc2c1-c1cc(Cl)cc(Cl)c1 [Example 61] | 6310 | 5.29 |  |  |  |  |  |
| Cc1ccc2c(c1)[C@@H](NC(=O)c1cnc3c(-c4ccccc4Cl)c(C)nn3c1C(C)C)CCC2 [Example 111] |  |  |  | 7.2 | 5.37 |  |  |
| Cc1nn2c(C(C)C)c(C(=O)N[C@H]3CCc4ccccc43)cnc2c1-c1cccc(C#N)c1 [Example 291] | 50.1 | 4.31 |  |  |  |  |  |
| Cc1nn2c(C(C)C)c(C(=O)N[C@H]3CCOc4ccc(Cl)cc43)cnc2c1-c1cccc(Cl)c1 [Example 105] |  |  |  | 6.8 | 5.36 |  |  |
| Cc1nn2c(C(C)C)c(C(=O)NC3CCCc4ccccc43)cnc2c1-c1cccc(C(F)(F)F)c1 (centres unmarked) [Example 2] | 31.6 | 5.59 |  |  |  |  |  |
| COc1ccc(F)c(-c2c(C)nn3c(C(C)C)c(C(=O)N[C@H]4CCOc5ccccc54)cnc23)c1Cl [Example 233] |  |  |  | 8.1 |  | 4.23 |  |
| Cc1nn2c(C(F)F)c(C(=O)N[C@H]3CCc4ccccc43)cnc2c1-c1cccc(C(F)(F)F)c1 [Example 311, (S)-7-(Difluoromethyl)-N-(2,3-dihydro-1H-inden-1-yl)-2-methyl-3-(3-(trifluoromethyl)-phenyl)-pyrazolo[1,5-a]pyrimidine-6-carboxamide] | 200 | 4.36 |  |  |  |  |  |
| Cc1nn2c(C(C)C)c(C(=O)N[C@H]3CCOc4ccccc43)cnc2c1-c1cnn(CC(F)(F)F)c1 [Example 401] |  |  |  | 7.9 |  |  | 3.57 |
| Cc1nn2c(C(C)C)c(C(=O)N[C@H]3CCOc4ccc(Cl)cc43)cnc2c1-c1cc(F)ccc1F [Example 114] |  |  |  | 6.9 | 4.82 |  |  |
| Cc1nn2c(C(C)C)c(C(=O)N[C@H]3CCOc4ccc(Cl)cc43)cnc2c1-c1ccccc1Cl [Example 104] |  |  |  | 7 | 4.87 |  |  |
| Cc1nn2c(C)c(C(=O)N[C@H]3CCc4ccccc43)cnc2c1-c1cccc(Cl)c1 [Example 59] | 79.4 | 4.12 |  |  |  |  |  |
| Cc1nn2c(C3CC3)c(C(=O)N[C@H]3CCOc4ccccc43)cnc2c1-c1cnn(CC(F)(F)F)c1 [Example 468] |  |  |  | 7.8 |  |  | 2.95 |
| Cc1nn2c(C(C)C)c(C(=O)N[C@H]3CCc4ccccc43)cnc2c1-c1cncnc1 [Example 296] | 7940 | 2.99 |  |  |  |  |  |
